Source: patent US8268817B2, “Substituted oxazole ketone modulators of fatty acid amide hydrolase” (The Scripps Research Institute, priority 2006, dated 2012)
Values belong to the compound of their own block, whether it stands above or below them.

Experiments:
[1] = model of multiple sclerosis; cited from earlier work
[2] = rats; cited from earlier work
[3] = rats; cited from earlier work; remark: listed apart in the source
[4] = molecular target: T1, FAAH (solubilized liver plasma membrane extract) (Rattus norvegicus, UniProt P97612); assay: FAAH enzyme assay, hydrolysis of 14C-oleamide to oleic acid; type: biochemical; conditions: 14C-oleamide substrate, pH 9.0, 20-23° C., Dixon method
T1 construct: using a solubilized liver plasma membrane extract containing FAAH; from tissue; host or cells: liver (plasma membrane extract, solubilized)
T1 sequence (P97612 1-579): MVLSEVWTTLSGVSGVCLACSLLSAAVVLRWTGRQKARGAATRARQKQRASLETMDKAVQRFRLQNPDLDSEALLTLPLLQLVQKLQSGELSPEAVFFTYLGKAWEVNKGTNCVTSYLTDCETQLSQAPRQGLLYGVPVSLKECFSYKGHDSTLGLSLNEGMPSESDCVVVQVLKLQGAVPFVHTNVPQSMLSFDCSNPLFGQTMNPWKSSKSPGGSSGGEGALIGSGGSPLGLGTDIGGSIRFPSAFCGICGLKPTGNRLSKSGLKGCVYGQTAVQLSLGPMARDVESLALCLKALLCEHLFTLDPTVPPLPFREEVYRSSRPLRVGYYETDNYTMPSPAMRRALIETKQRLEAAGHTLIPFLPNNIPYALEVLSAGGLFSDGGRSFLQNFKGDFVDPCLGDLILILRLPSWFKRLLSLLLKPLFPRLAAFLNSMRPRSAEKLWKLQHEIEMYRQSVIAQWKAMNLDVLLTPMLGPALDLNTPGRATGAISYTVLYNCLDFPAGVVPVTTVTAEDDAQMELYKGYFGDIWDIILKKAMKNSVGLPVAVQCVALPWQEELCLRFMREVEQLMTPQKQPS
Description: K; values were determined by the Dixon. Method (x-intercepts of weighted linear fits of [I] versus 1/rate plots at constant substrate concentration, which were converted to Ki values using the formula Ki=−xint/[1+[S]/Km]).

[5] = rats; cited from earlier work; remark: listed apart in the source
FAAH = molecular target: T2, FAAH (Homo sapiens, UniProt O00519); conditions: cited from earlier work
T2 sequence (O00519 1-579): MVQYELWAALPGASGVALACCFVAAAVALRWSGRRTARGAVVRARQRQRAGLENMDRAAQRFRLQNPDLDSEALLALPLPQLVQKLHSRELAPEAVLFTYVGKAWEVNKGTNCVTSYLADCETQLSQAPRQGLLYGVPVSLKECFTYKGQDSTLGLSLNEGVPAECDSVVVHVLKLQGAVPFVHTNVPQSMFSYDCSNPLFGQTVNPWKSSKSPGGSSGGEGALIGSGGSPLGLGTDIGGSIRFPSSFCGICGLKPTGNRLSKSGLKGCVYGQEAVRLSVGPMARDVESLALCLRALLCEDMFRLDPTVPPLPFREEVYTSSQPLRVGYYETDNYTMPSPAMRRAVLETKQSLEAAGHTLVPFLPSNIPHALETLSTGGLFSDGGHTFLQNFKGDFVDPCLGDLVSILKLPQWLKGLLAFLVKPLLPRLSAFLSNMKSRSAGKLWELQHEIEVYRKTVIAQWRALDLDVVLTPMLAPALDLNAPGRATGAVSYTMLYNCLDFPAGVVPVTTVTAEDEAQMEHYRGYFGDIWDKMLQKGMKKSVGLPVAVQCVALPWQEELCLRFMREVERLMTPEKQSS

[6] = rats; cited from earlier work; remark: listed apart in the source
[7] = rats; cited from earlier work; remark: listed apart in the source
[8] = rat; cited from earlier work

Structure (SMILES): CCCCCCCCCCCCCCCCS(=O)(=O)F [AM374]
- effect on spasticity in CREAE mice [1]: significantly reduce spasticity

Structure (SMILES): Cc1nc(-c2ccccc2)c(-c2ccccc2)n1CCCCCCNC(=O)Oc1ccccc1F [BMS-1]
- analgesic effect in Chung spinal nerve ligation model [2]: analgesic effect
- analgesic effect in Hargraves test [3]: analgesic effect

- Ki [4]: 24 nM
Structure (SMILES): O=C(CCCCCCc1ccccc1)c1ncc(C(=O)N2CCOCC2)o1 [Example 4, 1-(5-(Morpholine-4-carbonyl)oxazol-2-yl)-7-phenylheptan-1-one]

- Ki [4]: 8 nM
Structure (SMILES): O=C(CCCCCCc1ccccc1)c1ncc(C(=O)N2CCCCC2)o1 [Example 5, 7-Phenyl-1-(5-(piperidine-1-carbonyl)oxazol-2-yl)heptan-1-one]

- Ki [4]: 10 nM
Structure (SMILES): O=C(CCCCCCc1ccccc1)c1ncc(C(=O)N2CCSCC2)o1 [Example 6, 7-Phenyl-1-(5-(thiomorpholine-4-carbonyl)oxazol-2-yl)heptan-1-one]

- Ki [4]: 80 nM
Structure (SMILES): CN1CCN(C(=O)c2cnc(C(=O)CCCCCCc3ccccc3)o2)CC1 [Example 7, 1-(5-(4-Methylpiperazine-1-carbonyl)oxazol-2-yl)-7-phenylheptan-1-one]

- Ki [4]: 7 nM
Structure (SMILES): CNC(=O)c1cnc(C(=O)CCCCCCc2ccccc2)o1 [Example 8, N-Methyl-2-(7-phenylheptanoyl)oxazole-5-carboxamide]

- Ki [4]: > 2 nM
Structure (SMILES): O=C(CCCCCCc1ccccc1)c1ncc(S(=O)(=O)C(F)(F)F)o1 [Example 22, 7-Phenyl-1-(5-(trifluoromethylsulfonyl)oxazol-2-yl)heptan-1-one]

Structure (SMILES): O=C(CCCCCCc1ccccc1)c1ncc(-c2ccccn2)o1 [OL-135]
- analgesic efficacy in hot plate test [5]: analgesic activity
- inhibition of FAAH (FAAH): potent inhibitor
- analgesic activity in tail emersion test [6]: analgesic activity

Structure (SMILES): NC(=O)c1cccc(-c2cccc(OC(=O)NC3CCCCC3)c2)c1 [URB-597]
- efficacy in zero plus maze model of anxiety [7]: efficacy
- analgesic efficacy in hot plate test [5]: analgesic efficacy
- analgesic efficacy in formalin test [8]: analgesic efficacy
